Experiment [1] has as its target T1, human ME2 (Homo sapiens, UniProt P23368).
T1 construct: made in house; host or cells: Escherichia coli BL21
The experiment can be described thus: ME2 inhibition test. Format: biochemical. Particulars: for pIC50: Table 1, 40 mM L-malate, 2 mM NAD+, 10 mM MgCl2, read-out: IC50 with respect to ME2; for inhibiting the activity of ME2 (in words): summary of Table 1.

The subject of experiment [2] is MCF-7 cells. As to conditions: 150 μM, 48 hours.
Procedure: (§5) A 24-well plate was inoculated with H1299 cells (1.5×10^5 cells) and MCF-7 cells (3.0×10^5 cells), and the cells were cultured in a 37° C. and 5% carbon dioxide environment for 24 hours in order for a confluent monolayer of cells to be formed. After that, the culture medium was removed, and the cells were washed with a phosphate buffer. […] Cell migration was observed under an automated microscope, and a quantitative analysis of cells was performed at the same time.
In experiment [3] the test system is THP-1 cells. The experiment can be described thus: Animal test, ASID mice transplanted with THP-1 cells. It counts as in vivo. As to conditions: 4 mg/kg, intravenous, day 21. How it is done:
(§1) A plurality of 8-week-old ASID mice (or mice with advanced severe immunodeficiency, or more specifically NOD.Cg-Prkde^scidIl2rg^tm1Wjl/YckNarl mice) were randomly divided into 6 groups. Each group of mice was intravenously injected with one of a plurality of differently treated AML cell variants at a frequency of 5 days per week for 4 weeks. The AML cell variants injected into the 6 groups of mice are as follows: • Group 1-1: THP-1 cells • Group 2-1: THP-1 cells with EA (at a dosage of 4 mg/kg) • Group 3-1: THP-1 cells with Na2EA (at a dosage of 4 mg/kg) • Group 1-2: MV4-11 cells • Group 2-2: MV4-11 cells with EA (at a dosage of 4 mg/kg) • Group 3-2: MV4-11 cells with Na2EA (at a dosage of 4 mg/kg)
(§2) On the 21st day of the test, peripheral blood was collected from the submandibular vein of the mice, and bone marrow was collected as well. The blood and bone marrow were stained with specific markers (CD33 and CD45) and then reacted with a fluorescent antibody, before the CD33+ or CD45^+-stained cells were quantified with a flow cytometer.

Experiment [4] concerns MCF-7 cells. The experiment can be described thus: Seahorse XF cell mito stress test (oxygen consumption rate). It counts as cell-based, human.
Procedure: (§6) Finally, a Seahorse XFe24 analyzer was used to perform a Seahorse XF cell mito stress test on the cells to obtain the oxygen consumption rates (OCR) of the cells, and the test results are shown in FIG. 9 to FIG. 18. The control groups were formed by cells to which no EA or MDSA was added.
Experiment [5] deals with H1299 cells. The experiment is described as above. As to conditions: 75 and 150 μM, 3 hours. Format: cell-based, human.
Procedure: as §6
Experiment [6] has as its system MCF-7 cells. The experiment can be described thus: Pyruvate and NADPH content of treated cells. Format: cell-based, human. Particulars: 25 μM, 48 hours. The protocol: (§3) H1299 cells (3×10^5 cells) were cultured for 24 hours in separate culture media each containing 20 mM L-malate, with the culture environment being at 37° C. and containing 5% carbon dioxide. […]. After that, the cultured cells in each group were collected and were centrifuged in 100 μL of phosphate buffer, and the supernatants were collected. Once the proteins in the supernatants were removed, a pyruvate colorimetric/fluorometric assay kit and a PicoProbe™ NADPH quantification fluorometric assay kit were used to analyze the pyruvate content and NADPH content of the cells respectively (Ex/Em: at 535 nm and 587 nm). […]
In addition, MCF-7 cells (6×10^5 cells) were cultured in the same way as the H1299 cells and had their pyruvate content and NADPH content analyzed.

The test system of experiment [7] is MCF-7 cells. The experiment can be described thus: Cell invasion assay (Transwell/Matrigel). It counts as cell-based, human. As to conditions: 150 μM, 24 hours. How it is done: (§4) […]. A culture medium containing 10% fetal bovine serum was subsequently added to the lower chambers. […] The vehicle groups, which were formed by cells to which no EA or MDSA was added, were provided to enable the calculation of the amount of the cells in each EA or MDSA-treated group in relation to the amount of the cells in the corresponding vehicle group at the end of the assay so that changes in the relative amounts of cells can be observed with ease.

Experiment [8] has as its system H1299 cells. The experiment can be described thus: Cell invasion assay (Transwell/Matrigel). Format: cell-based, human. As to conditions: 150 μM, 24 hours. How it is done:
as §4

In experiment [9] the test system is H1299 cells. The experiment can be described thus: ATP and ROS content of treated cells. It counts as cell-based, human. As to conditions: 150 μM, 48 hours. The protocol:
H1299 cells (3×10^5 cells) were cultured in separate culture media each containing 20 mM L-malate. […]. Also, a ROS assay kit (#cat.MAK143, Sigma-Aldrich, St. Louis, MO, USA) was used to analyze the ROS contents of the cells, and the results are shown in FIG. 8. […]

The test system of experiment [10] is H1299 cells. The experiment can be described thus: Pyruvate and NADPH content of treated cells. It counts as cell-based, human. Particulars: 25 μM, 48 hours, 20 mM L-malate. The protocol:
as §3

Experiment [11] relates to MV4-11 cells. The experiment can be described thus: Animal test, ASID mice transplanted with MV4-11 cells. It counts as in vivo. As to conditions: 4 mg/kg, intravenous, day 21. How it is done: as §1, §2
The subject of experiment [12] is H1299 cells. Particulars: 150 μM, 48 hours.
Procedure: as §5

pIC50: −log10 of the molar value.

T1 sequence (P23368 19-584): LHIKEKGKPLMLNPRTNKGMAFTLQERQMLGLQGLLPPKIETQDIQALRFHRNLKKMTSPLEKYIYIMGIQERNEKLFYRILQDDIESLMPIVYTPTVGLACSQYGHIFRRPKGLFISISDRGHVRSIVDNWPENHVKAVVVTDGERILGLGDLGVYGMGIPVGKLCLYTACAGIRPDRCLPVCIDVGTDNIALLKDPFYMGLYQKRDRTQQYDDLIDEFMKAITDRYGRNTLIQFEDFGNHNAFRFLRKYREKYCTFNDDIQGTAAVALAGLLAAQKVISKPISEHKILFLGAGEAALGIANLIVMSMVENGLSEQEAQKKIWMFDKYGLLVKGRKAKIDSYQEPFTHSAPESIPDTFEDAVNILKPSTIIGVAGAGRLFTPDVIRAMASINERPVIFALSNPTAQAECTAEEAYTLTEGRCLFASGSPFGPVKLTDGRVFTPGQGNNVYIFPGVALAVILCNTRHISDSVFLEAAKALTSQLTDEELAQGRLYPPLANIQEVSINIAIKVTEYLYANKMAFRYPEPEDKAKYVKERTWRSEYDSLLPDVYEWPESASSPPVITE

Consider `O=C(O)c1ccc2ccccc2c1O` [1-hydroxy-2-naphthoic acid], for which, in experiment [1], the pIC50 (as a rule, −log10 of the IC50, conventionally taken in molar units) is 4.13 and the “inhibiting the activity of ME2 (in words)” value (from here on “inhibiting the activity”) is “relatively effective”.

Turning to `O=C(O)c1ccc2cc(C(=O)O)ccc2c1` [2,6-dicarboxy naphthalene], the pIC50 in [1] was 3.45.

Regarding `O=C(O)c1cc2cccc(O)c2cc1O` [3,5-dihydroxy-2-naphthoic acid], in experiment [1], the pIC50 was 4.91 and the “inhibiting the activity” value is recorded as “relatively effective”.

Regarding `O=C(O)c1cc2cc(O)ccc2cc1O` [3,7-dihydroxy-2-naphthoic acid], the pIC50 in [1] is 4.42.

Regarding `O=C(O)c1cccc(C(=O)c2ccccc2)c1` [3-benzoyl-benzoic acid], in experiment [1], the pIC50 was 3.19.

As to `O=C(O)c1cc2ccccc2cc1O` [3-hydroxy-2-naphthoic acid], in experiment [1], the pIC50 was 3.98 and the “inhibiting the activity” value is on record as “relatively effective”.

With `O=C(O)c1cc2cc(Br)ccc2cc1O` [7-bromo-3-hydroxy-2-naphthoic acid], in experiment [1], the pIC50 was 3.51.

`O=C(O)c1cc2ccccc2c(Cc2c(O)c(C(=O)O)cc3ccccc23)c1O` [EA, 4,4′-methylene-bis(3-hydroxy-2-naphthoic acid)]: in experiment [2], the cell migration result was “cannot inhibit”. The “AML cells in mice (CD33+ / CD45+ stained cells in peripheral blood and bone marrow)” value in experiment [3] was “reduce”. Moreover, in experiment [4], the ATP generation entry is recorded as “remained the same”, the basal respiration rate result is listed as “remained the same”, the maximum respiration rate result is recorded as “remained the same” and the spare respiratory capacity entry is reported as “remained the same”. Besides, in experiment [5], the “ATP generation (mitochondrial electron transport chain)” value is “reduced”, the basal respiration rate result was “reduced”, the maximum respiration rate result is “reduced” and the spare respiratory capacity result is reported as “reduced”. In experiment [6], the NADPH content entry is reported as “not reduced significantly” and the pyruvate content entry is on record as “not reduced significantly”. Further, the cell invasion result in [7] is given as “cannot inhibit”. In addition, the cell invasion entry in [8] is given as “inhibit”. For the same molecule, in experiment [9], the ATP content result is “lower” and the ROS content entry is on record as “increase”. In addition, in experiment [10], the NADPH content result was “reduce” and the pyruvate content entry was “reduce”. Further, the “AML cells in mice (CD33+ / CD45+ stained cells in peripheral blood and bone marrow)” value in [11] is on record as “reduce”. Moreover, the cell migration result in [12] is recorded as “inhibit”.

Consider `O=C(O)c1cc(Cc2ccc(O)c(C(=O)O)c2)ccc1O` [MDSA, 5,5′-methylenedisalicylic acid], for which, in experiment [4], the spare respiratory capacity result is given as “remained the same”. In addition, in experiment [5], the “ATP generation (mitochondrial electron transport chain)” value is “lowered”. Also, in experiment [6], the NADPH content entry is listed as “not reduced significantly” and the pyruvate content result is recorded as “not reduced significantly”. Further, the cell invasion entry in experiment [7] is on record as “cannot inhibit”. Besides, the cell invasion result in experiment [8] is “inhibit”. Also, in experiment [9], the ATP content result is reported as “lower” and the ROS content entry is on record as “increase”. Besides, in experiment [10], the NADPH content entry is “reduce” and the pyruvate content result is listed as “reduce”.

Consider `O=C(O)c1ccccc1O` [Salicylic acid], for which the pIC50 in experiment [1] was 3.10.

(Values after patent US20250120987A1, “METHOD FOR TREATING CANCER USING HUMAN MIT[…] ENZYME 2 INHIBITOR” (priority 2023, published 2025).)
